Measured values as given in patent publication US8129527B2, “Analogs of dehydrophenylahistins and their therapeutic use” (Nereus Pharmacuticals, Inc., priority 2006, dated 2012).
Converted amounts (≈) assume the structure as drawn. Read-outs that look alike come from different tables or passages of the source.

How the values were obtained:
[1] = test system: Trichophyton mentagrophytes; experiment: Antifungal susceptibility testing, broth dilution (MIC/MFC); assay type: cell-based; conditions: in words
Method: Specifically, disclosed compounds were evaluated alongside commercially available microtubulin inhibitors as well as recognized antifungal agents. […].
(§1) Microorganisms against which these compounds were tested included: Candida albicans, Candida glabrata, Aspergillus fumigatus, Trichophyton rubrum, Trichophyton mentagrophytes, Epidermophyton floccosum. With the exception of Candida glabrata (one isolate), two isolates of each species were tested.
Drug concentrations were 0.03-16 μg/ml for the investigational compounds, 0.015-8 μg/ml for itraconazole and griseofulvin.
The minimum lethal concentration (MLC) was determined by plating […] from the MIC concentration and each concentration above the MIC. […] When a MIC was obtained, a minimum fungicidal concentration (MFC) was determined to assess the fungistatic/fungicidal nature of the compound. […] The compound is scored as fungistatic if the cells are able to resume growth and fungicidal if no regrowth is possible because the compound had killed the organisms.

[2] = test system: P388 murine leukemia cells; experiment: Cytotoxic effect in P388 cells; assay type: cell-based; conditions: Mus musculus, P388, read-out: IC50 (nM) P-388; Table 2
From the text: The cytotoxic effects of phenylahistin, dehydrophenylahistin and various derivatives of dehydrophenylahistin were examined in P388 murine leukemia cells, HT-29 human colon cells, and PC-3 prostatic adenocarcinoma cells.

HT-29 human colon cells = experiment: Tumor cytotoxicity assay, resazurin fluorescence, 48 h (Example 6); assay type: cell-based; conditions: for EC50: Homo sapiens
Aspergillus fumigatus = experiment: Antifungal susceptibility testing, broth dilution (MIC/MFC); assay type: cell-based; conditions: Aspergillus fumigatus, read-out: MIC
Method: (§2) Specifically, disclosed compounds were evaluated alongside commercially available microtubulin inhibitors as well as recognized antifungal agents.
as §1
(§3) The minimum lethal concentration (MLC) was determined by plating […] from the MIC concentration and each concentration above the MIC. […] When a MIC was obtained, a minimum fungicidal concentration (MFC) was determined to assess the fungistatic/fungicidal nature of the compound.

Candida glabrata = experiment: as above; assay type: cell-based; conditions: C. glabrata
Method: as §2, §1, §3

Trichophyton rubrum = experiment: as above; assay type: cell-based
Method: as §2, §1, §3

Candida albicans = experiment: as above; assay type: cell-based
Method: as §2, §1, §3

[3] = test system: HL-60 human acute promyelocytic leukemia cells; experiment: Cell growth inhibition assay, resazurin (Example 11); assay type: cell-based; conditions: mean values of two independent experiments
Method: (§4) Human uterine sarcoma (MES-SA; CRL-1976), its multidrug resistant derivative (MES-SA/Dx5; CRL-1977), human acute promyelocytic leukemia cells (HL-60; CCL-240) and its multidrug resistant derivative (HL-60/MX2; CRL-2257) were purchased from ATCC and maintained in appropriate culture media. The cells were cultured in an incubator at 37° C. in 5% CO2 and 95% humidified air.
(§5) For cell growth inhibition assays, MES-SA and MES-SA/Dx5 cells were both seeded at 3×10^3 cells/well in 90 μl complete media into 96 well (Corning; 3904) black-walled, clear-bottom tissue culture plates and the plates were incubated overnight to allow cells to establish and enter log phase growth. HL-60 and HL-60/MX2 cells were both seeded at 5×10^4 cells/well in 90 μl complete media into 96 well plates on the day of compound addition. 20 mM stock solutions of the compounds were prepared in 100% DMSO and stored at −80° C. […] Ten μl volumes of the 10× serial dilutions were added to the test wells in triplicate and the plates returned to the incubator for 48 hours. The final concentration of DMSO was 0.25% in all samples.
(§6) Following 48 hours of drug exposure, 10 μl of 0.2 mg/ml resazurin (obtained from Sigma-Aldrich Chemical Co.) in Mg^2+, Ca^2+ free phosphate buffered saline was added to each well and the plates were returned to the incubator for 3-6 hours. […] Resazurin dye in medium without cells was used to determine the background, which was subtracted from the data for all experimental wells.
(§7) HL-60/MX2 is a multidrug resistant tumor cell line derived from the human promyelocytic leukemia cell line, HL-60 and expresses reduced topoisomerase II activity. The data presented in Table 20 summarize the growth inhibitory effects of NPI-2421, NPI-2463, NPI-2503, NPI-2504 and NPI-2506 against HL-60 and its multidrug resistant derivative HL-60/MX2. Mitoxantrone, the topoisomerase II targeting agent was included as a control.

[4] = test system: HT-29 human colorectal carcinoma cells; experiment: Cell growth inhibition assay, resazurin (Table 3.2); assay type: cell-based; conditions: Table 3.2, HT-29 cells, read-out: EC50 (M) Mean
Method: The cytotoxic effects of various derivatives of dehydrophenylahistin against HT-29 human colorectal carcinoma cells were determined.
HT-29 cells (ATCC; HTB-38) were maintained in ATCC recommended culture media and cultured in an incubator at 37° C. in 5% CO2 and 95% humidified air.
For cell growth inhibition assays, HT-29 cells were seeded at 5×10^3 cells/well in 90 μl complete media into a Corning 3904 black-walled, clear-bottom tissue culture plates and the plates were incubated overnight to allow cells to establish and enter log phase growth. 20 mM stock solutions of compounds were prepared in 100% DMSO and stored at −80° C. 10× concentrated serial dilutions of the compounds were prepared in culture medium for final concentrations ranging from 20 μM to […]. Ten μl volumes of the 10× serial dilutions were added to the test wells in triplicate and the plates returned to the incubator for 48 hours. The final concentration of DMSO was 0.25% in all samples.
as §6, with “3-4” for “3-6”

[5] = test system: HL-60/MX2 multidrug resistant; experiment: Cell growth inhibition assay, resazurin (Example 11); assay type: cell-based, human
Method: as §4, §5, §6, §7

[6] = test system: MES-SA/Dx5 multidrug resistant; experiment: as above; assay type: cell-based, human
Method: as §4, §5, §6
(§8) The multidrug resistant MES-SA/Dx5 tumor cell line was derived from the human uterine sarcoma MES-SA tumor cell line and expresses elevated P-Glycoprotein (P-gp), an ATP dependent efflux pump. The data in Table 19 summarize the growth inhibitory effects of NPI-2421, NPI-2463, NPI-2503, NPI-2504 and NPI-2506 against MES-SA and its multidrug resistant derivative MES-SA/Dx5. Paclitaxel, a known substrate of the P-gp pump was included as a control.

[7] = test system: MES-SA human uterine sarcoma; experiment: as above; assay type: cell-based; conditions: mean ± standard deviation of three independent experiments
Method: as §4, §5, §6, §8

[8] = test system: HT-29 human colorectal carcinoma cells; experiment: Cytotoxic effect against HT-29 cells (Table 30); assay type: cell-based
Method: The following additional dehydrophenylahistin derivatives were synthesized according to the methods described herein and their cytotoxic effect against HT-29 human colorectal carcinoma cells were determined.

[9] = test system: MES-SA/Dx5 (Taxol Resistant) human uterine sarcoma; experiment: Drug resistant cell line pair, cytotoxicity (Example 10B); assay type: cell-based; conditions: vs MES-SA
From the text: 1) Human Uterine Sarcoma Tumor Cell Line Pair: MES-SA (Taxol Sensitive) and MES-SA/Dx5 (Taxol Resistant).

[10] = test system: PC-3 prostatic adenocarcinoma cells; experiment: Tumor cytotoxicity assay, resazurin fluorescence, 48 h (Example 6); assay type: cell-based, human; conditions: Homo sapiens, read-out: EC50 (nM) PC-3
Method: 10× concentrated serial dilutions of the two compounds were prepared in appropriate culture medium for final concentrations ranging from 2.0×10^−5 M to 2.0×10^−10 M. Ten μl volumes of the 10× serial dilutions were added to the test wells in triplicate and the plates returned to the incubator for 48 hours.
as §6, with “exposure” for “exposure,”, “PBS” for “phosphate buffered saline”, “3-4” for “3-6”, “dye” for “dye in medium”, “wells. The data were analyzed using Prism software (GraphPad Software).” for “wells.”
PC-3, a human prostate adenocarcinoma, was maintained in F12K complete medium (F12K medium supplemented with 10% FBS; 2 mM Glutamine; 1% HEPES; and Pen/Strep at 100 IU/ml and 100 µg/ml, respectively).

[11] = Nakaseomyces glabratus, read-out: MIC
[12] = Candida albicans, C. albicans 90028, read-out: MIC
[13] = HT-29 cells, read-out: EC50 (M) Mean

SMILES: C=CC(C)(C)c1[nH]cnc1/C=C1\NC(=O)[C@H](Cc2ccccc2)NC1=O [(−)-Phenylahistin, reference compound]
- antifungal potency versus the sensitive T. mentagrophytes isolate [1]: weaker but more comparable to the others
- IC50 [2]: 833 ± 153 nM
- EC50 (HT-29 human colon cells; HT-29, Table 2, read-out: EC50 (nM) HT-29): 1600 nM
- MIC (Aspergillus fumigatus; A. fumigatus isolate #1): > 16 µg/mL
- MIC (Aspergillus fumigatus; A. fumigatus isolate #2): > 16 µg/mL
- MIC (Candida glabrata; [11]): > 70 µg/mL
- antifungal potency versus T. rubrum (Trichophyton rubrum; in words): significantly less potent than the other compounds
- MIC (Candida albicans; [12]): > 70 µg/mL

SMILES: CC(C)(C)c1ocnc1/C=c1\[nH]c(=O)/c(=C/c2c(F)ccc(F)c2F)[nH]c1=O [Compound 2506, tBu-oxadelta-PLH-2,3,6-trifluoro]
- EC50 [3]: 32 nM
- EC50 [4]: 2.4e-08 M
- EC50 ([5]; Homo sapiens, HL60/MX2, HL-60/MX2, mean values of two independent experiments): 31 nM
- cytotoxic activity against both HL-60 and HL-60/MX2 ([5]; in words): retained cytotoxic activity
- Fold change ([5]; ratio of EC50 values (HL-60/MX2:HL-60)): 1.0
- EC50 ([6]; Homo sapiens, MES-SA/Dx5, mean ± standard deviation of three independent experiments): 27 ± 6 nM
- cytotoxic activity against both MES-SA and MES-SA/Dx5 ([6]; in words): retained equivalent cytotoxic activity
- Fold change ([6]; ratio of EC50 values (MES-SA/Dx5:MES-SA)): 1.2
- EC50 [7]: 22 ± 3 nM

SMILES: CC(C)(C)c1[nH]cnc1/C=c1\[nH]c(=O)/c(=C/c2cccc(OP(=O)(O)O)c2)[nH]c1=O [Compound 2521]
- EC50 ([8]; HT-29, read-out: EC50 (M) Mean): 2.8e-07 M

SMILES: COC(=O)c1cccc(/C=c2\[nH]c(=O)/c(=C/c3nc[nH]c3C(C)(C)C)[nH]c2=O)c1 [Compound 2527]
- EC50 ([8]; HT-29, read-out: EC50 (M) Mean): 1.9e-07 M

SMILES: CC(C)(C)c1[nH]cnc1/C=c1\[nH]c(=O)/c(=C/c2cccc(C(=O)O)c2)[nH]c1=O [Compound 2528]
- EC50 [8, 13]: > 2e-05 M

SMILES: CC(C)(C)c1[nH]cnc1/C=c1\[nH]c(=O)/c(=C/c2cccc(C(N)=O)c2)[nH]c1=O [Compound 2529]
- EC50 ([8]; HT-29, read-out: EC50 (M) Mean): 5e-06 M

SMILES: CC(C)(C)c1ocnc1/C=c1\[nH]c(=O)/c(=C/c2cccc(C(N)=O)c2)[nH]c1=O [Compound 2533]
- EC50 [8, 13]: 1.8e-06 M

SMILES: CC(C)(C)c1ocnc1/C=c1\[nH]c(=O)/c(=C/c2cccc(C(=O)c3ccc(CN)cc3)c2)[nH]c1=O [Compound 2534]
- EC50 ([8]; HT-29, read-out: EC50 (M) Mean): 5.3e-07 M

SMILES: CC(C)(C)c1ocnc1/C=c1\[nH]c(=O)/c(=C/c2cccc(C(=O)c3ccc(CNC(=O)CCCCCNC(=O)CCCCCNC(=O)CCCC[C@@H]4SC[C@H]5NC(=O)N[C@@H]45)cc3)c2)[nH]c1=O [Compound 2545]
- EC50 [8, 13]: 1.1e-06 M

SMILES: COc1ccc(/C=c2\[nH]c(=O)/c(=C/c3nc[nH]c3C(C)(C)C)[nH]c2=O)c(OC)c1OC [KPU-17, tBu-ΔPLH-2,3,4-triOMe]
- EC50 (HT-29 human colon cells; HT-29, Table 3, read-out: EC50 (nM) HT-29): 4060 nM
- cytotoxic activity against HT-29 cells (HT-29 human colon cells; in words): also showed activity
- antifungal potency compared with griseofulvin (Trichophyton rubrum; Trichophyton species): equivalent in potency or in some cases more potent than griseofulvin

SMILES: C[C@@H]1[C@H](O)[C@@H](C)/C=C/C=C/C=C/C=C/C=C/C=C/C=C/[C@H](O[C@@H]2O[C@H](C)[C@@H](O)[C@H](N)[C@@H]2O)C[C@@H]2O[C@](O)(C[C@@H](O)C[C@@H](O)[C@H](O)CC[C@@H](O)C[C@@H](O)CC(=O)O[C@H]1C)C[C@H](O)[C@H]2C(=O)O [amphotericin B, Amphotericin B]
- MFC (Candida glabrata): 1 µg/mL (≈ 1.08 µM)
- MIC (Candida glabrata): 1 µg/mL (≈ 1.08 µM)
- MFC (Candida albicans; C. albicans 10231): 0.5 µg/mL (≈ 0.541 µM)
- MIC (Candida albicans; C. albicans 10231): 0.5 µg/mL (≈ 0.541 µM)
- MFC (Candida albicans; C. albicans 90028): 0.5 µg/mL (≈ 0.541 µM)
- MIC (Candida albicans; C. albicans 90028): 0.5 µg/mL (≈ 0.541 µM)

SMILES: CCCCNC(=O)n1c(NC(=O)OC)nc2ccccc21 [benomyl, Benomyl]
- MFC (Candida glabrata; Nakaseomyces glabratus, read-out: MFC): > 512 µg/mL
- MIC (Candida glabrata; [11]): 64 µg/mL (≈ 220 µM)
- MFC (Candida albicans; Candida albicans, C. albicans 90028, read-out: MFC): > 512 µg/mL
- MIC (Candida albicans; [12]): 64 µg/mL (≈ 220 µM)

SMILES: COc1cccc2c1C(=O)c1c(O)c3c(c(O)c1C2=O)C[C@@](O)(C(=O)CO)C[C@@H]3O[C@H]1C[C@H](N)[C@H](O)[C@H](C)O1 [doxorubicin, Doxorubicin, reference compound]
- reduced susceptibility of the MES-SA/DX5 cell line [9]: 34 fold

SMILES: COc1cc([C@@H]2c3cc4c(cc3[C@@H](O[C@@H]3O[C@@H]5CO[C@@H](C)O[C@H]5[C@H](O)[C@H]3O)[C@H]3COC(=O)[C@H]23)OCO4)cc(OC)c1O [etoposide, Etoposide, reference compound]
- reduced susceptibility of the MES-SA/DX5 cell line [9]: 60 fold

SMILES: CCC(C)n1ncn(-c2ccc(N3CCN(c4ccc(OCC5COC(Cn6cncn6)(c6ccc(Cl)cc6Cl)O5)cc4)CC3)cc2)c1=O (stereo not drawn) [itraconazole, Itraconazole, reference compound]
- MIC (Aspergillus fumigatus; A. fumigatus isolate #1): 1 µg/mL (≈ 1.42 µM)

SMILES: CC(C)(C)c1[nH]cnc1/C=c1\[nH]c(=O)/c(=C/c2ccccc2)[nH]c1=O [tBu-ΔPLH]
- EC50 [10]: 1 nM
- EC50 (HT-29 human colon cells; HT-29, read-out: EC50 (nM) HT29, Table 1): 13 nM
